Test results reported in BindingDB's records for doi:10.7270/Q2W094D4 (Burnham Center For Chemical Genomics, 2011).

Target: Hexokinase HKDC1 [W721R] (Homo sapiens, UniProt Q2TB90, W721R)
Experiment: HKDC1 hexokinase inhibitors, dose response, biochemical, W721R variant (AID 504729)

Sequence of Hexokinase HKDC1 [W721R] (Q2TB90 whole entry W721R): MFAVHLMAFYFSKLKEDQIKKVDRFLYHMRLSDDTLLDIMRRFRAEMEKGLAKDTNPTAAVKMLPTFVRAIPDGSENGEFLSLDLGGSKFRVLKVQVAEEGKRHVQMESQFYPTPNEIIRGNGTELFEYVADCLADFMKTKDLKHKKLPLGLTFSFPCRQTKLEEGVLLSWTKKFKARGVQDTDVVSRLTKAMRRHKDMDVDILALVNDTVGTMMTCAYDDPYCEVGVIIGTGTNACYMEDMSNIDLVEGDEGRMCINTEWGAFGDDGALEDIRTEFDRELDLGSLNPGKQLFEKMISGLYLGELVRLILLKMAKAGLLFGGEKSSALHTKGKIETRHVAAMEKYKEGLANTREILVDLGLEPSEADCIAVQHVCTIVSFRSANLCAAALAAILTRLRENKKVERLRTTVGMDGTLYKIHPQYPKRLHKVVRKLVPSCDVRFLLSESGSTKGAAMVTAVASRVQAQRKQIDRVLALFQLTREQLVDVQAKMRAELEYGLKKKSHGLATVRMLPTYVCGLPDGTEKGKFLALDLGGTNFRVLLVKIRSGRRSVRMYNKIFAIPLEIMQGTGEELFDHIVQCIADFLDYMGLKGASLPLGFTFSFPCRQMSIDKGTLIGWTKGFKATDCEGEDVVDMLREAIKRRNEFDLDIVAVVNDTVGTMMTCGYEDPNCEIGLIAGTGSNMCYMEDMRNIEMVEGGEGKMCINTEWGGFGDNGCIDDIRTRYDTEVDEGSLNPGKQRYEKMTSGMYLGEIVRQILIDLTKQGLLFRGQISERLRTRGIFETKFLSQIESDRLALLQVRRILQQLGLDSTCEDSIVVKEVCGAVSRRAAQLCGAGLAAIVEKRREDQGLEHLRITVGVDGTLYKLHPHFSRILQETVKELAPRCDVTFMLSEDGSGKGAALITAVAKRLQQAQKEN

IC50 | SMILES
6.23 µM | O=C1C=CC(CN=Nc2ccc([N+](=O)[O-])cn2)C(O)=C1 (stereo not drawn) [SMR001527138]
11.6 µM | Cc1ccc(Nc2c3[nH]cccc-3c(=O)n2-c2ccccc2C)cc1C [SMR000028201]
15.5 µM | Cc1cccc2c1=NC(=O)C=2NNC(=O)c1ccc(NS(=O)(=O)c2cccs2)cc1 [SMR001246714]
2.18 µM | C=c1c(NC(C)=O)c(O)c2nc3n(c2c1O)CCC=3OC(=O)COC [SMR001565176]

The next lines start with the molecule.

SMILES | IC50
CC(Nc1cc(O)c2cccnc2c1O)C(=O)c1ccccc1 (stereo not drawn) | 18.5 µM
O=C(/C=C/c1ccco1)NCC(=O)NNC1=c2ccccc2=NC1=O [MLS001075666] | 25.3 µM
Cc1[nH]c2c(=O)c3c(c(=O)c=2[nH]c1C)C1C=CC3CC1 [MLS002701599] | 2.23 µM
Cc1ccc(/N=C/C2=CC(Cc3ccccc3Cl)C=C([N+](=O)[O-])C2=O)c(O)c1 (stereo not drawn) | 28.5 µM
COc1ccc(Cn2c(O)c3[nH]cccc-3c2=O)cc1 | 21.5 µM
N#CC(C(=O)CCl)c1nc2c(s1)CCc1ccccc1-2 (stereo not drawn) [MLS001171530] | 17.4 µM
Oc1ccc(CN=Nc2ncc(Br)cn2)c(O)c1 | 1.68 µM
Oc1c(Cl)c(N=CCc2ccccc2)c(O)c2ccccc12 [MLS002608293] | 7.92 µM
COC1=CC(/C=C(\C#N)c2nc3ccc(C)cc3[nH]2)C=C([N+](=O)[O-])C1=O (stereo not drawn) [(2Z,3E)-3-(3-methoxy-5-nitro-4-oxocyclohexa-2,5-dien-1-ylidene)-2-(5-methyl-1,3-dihydrobenzimidazol-2-ylidene)propanenitrile] | 16.1 µM
